Experimental findings from ChEMBL document CHEMBL3097987, “Pyrrolizines: Promising scaffolds for anticancer drugs” (Bioorg Med Chem, 2014) are described below.

The target in test [1] is Peptidyl-prolyl cis-trans isomerase NIMA-interacting 1 (Homo sapiens, UniProt Q13526). Description: Inhibition of Pin-1 (unknown origin) using Suc-Ala-Glu-Pro-Phe-pNA as substrate preincubated for 300 seconds followed by substrate addition by UV/Vis spectrophotometric analysis.
For the next test, the target named is Tubulin. The test can be described thus: Inhibition of tubulin (unknown origin) polymerization. The class given is protein-complex assay, Homo sapiens.
Another test addresses T1, Aromatase (Homo sapiens, UniProt P11511).
T1 sequence (P11511 whole entry): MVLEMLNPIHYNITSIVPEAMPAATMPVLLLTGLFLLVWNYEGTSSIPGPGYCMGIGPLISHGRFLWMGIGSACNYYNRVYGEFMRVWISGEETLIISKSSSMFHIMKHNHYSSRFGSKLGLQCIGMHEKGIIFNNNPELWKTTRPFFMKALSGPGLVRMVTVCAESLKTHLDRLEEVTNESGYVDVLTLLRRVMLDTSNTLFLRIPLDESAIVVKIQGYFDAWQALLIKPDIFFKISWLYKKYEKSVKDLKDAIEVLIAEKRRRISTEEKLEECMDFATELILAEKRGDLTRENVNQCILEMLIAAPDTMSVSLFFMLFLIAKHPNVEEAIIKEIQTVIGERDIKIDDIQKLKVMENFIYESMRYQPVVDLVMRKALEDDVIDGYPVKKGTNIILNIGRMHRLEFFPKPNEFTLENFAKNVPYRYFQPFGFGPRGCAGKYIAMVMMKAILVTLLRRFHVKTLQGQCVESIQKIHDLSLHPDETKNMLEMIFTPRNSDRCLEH
Description: Inhibition of aromatase (unknown origin).

The subject of the next test is Jensen sarcoma. Description: Growth inhibition of rat Jensen sarcoma relative to control. It is filed as functional.
Test [2] can be described thus: Growth inhibition of mouse mammary carcinoma 755 cells relative to control. The class given is functional.
Test [3] deals with MCF7. Description: Cytotoxicity against human MCF7 cells relative to 5-flurouracil. It is filed as functional.
Test [4] has as its system MCF7. The test can be described thus: Cytotoxicity against human MCF7 cells relative to licofelone. The class given is functional.
The subject of test [5] is MDA-MB-231. Description: Cytotoxicity against human MDA-MB-231 cells relative to 5-flurouracil. It is filed as functional.
Test [6] concerns MDA-MB-231. The test can be described thus: Cytotoxicity against human MDA-MB-231 cells relative to licofelone. The class given is functional.
The test system of another test is HT-29. The test can be described thus: Cytotoxicity against human HT-29 cells relative to licofelone. It is filed as functional.
Another test has as its system B16. The test can be described thus: Cytotoxicity against mouse B16 cells assessed as tumor growth inhibition relative to control. The class given is functional.
A short description of test [7]: Cytotoxicity against mouse mammary carcinoma 755 cells assessed as tumor growth inhibition relative to control. The class given is functional.
Test [8] in a line: Cytotoxicity against mouse LLC cells assessed as tumor growth inhibition relative to control. It is filed as functional, Lewis lung carcinoma.
Test [9] can be described thus: Antitumor activity against human Bel7402 cells by MTT assay. Particulars: Bel-7402. The class given is functional, cell-based.
The test system of the next test is Bel-7402. Description: Ratio of cisplatin IC50 to compound IC50 for human Bel7402 cells. The class given is functional.
A further test deals with HT-1080. Description: Ratio of cisplatin IC50 to compound IC50 for human HT1080 cells. It is filed as functional.
The nature of test [10]: Antitumor activity against human HT1080 cells by MTT assay. The class given is functional, cell-based. Particulars: HT-1080.

SMILES strings stand for the structures.

Peptidyl-prolyl cis-trans isomerase NIMA-interacting 1, sequence (Q13526 whole entry): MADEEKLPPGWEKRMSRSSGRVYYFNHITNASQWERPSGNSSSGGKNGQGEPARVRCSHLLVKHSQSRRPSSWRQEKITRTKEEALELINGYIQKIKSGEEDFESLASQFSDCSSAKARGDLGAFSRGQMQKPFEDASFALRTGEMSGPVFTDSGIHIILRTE

In the case of `O=C(NCc1ccc2c(c1)OCO2)C1C(COP(=O)(O)O)C2CCCN2C1c1ccc2ccccc2c1` (racemic), in test [1], the Ki came to 32 µM.
`COc1cc([C@@H]2c3cc4c(cc3C[C@H]3COC(=O)[C@@H]32)OCO4)cc(OC)c1OC` [DESOXYPODOPHYLLOTOXIN] yielded an IC50 against Tubulin of 2.4 µM. That is a single-digit micromolar value.
At Aromatase, `O=C1/C(=C\c2cccnc2)C(c2ccccc2)n2cccc21` (configuration not stated) had an IC50 of 3 µM. That is a single-digit micromolar value.
For `CN(C)/C=N/C(=O)c1c2n(c3c(-c4ccccc4)ncnc13)CCC2`, the growth inhibition (GI) (in the test with Jensen sarcoma; in test [2]) was 78% throughout.
Take `CC1(C)Cc2c(-c3ccccc3)c(-c3ccc(Cl)cc3)c(C(=O)Cn3cncn3)n2C1`: the “fold change (FC)” value in the test on MCF7 [3], in the test on MCF7 [4], with MDA-MB-231 [5], in the test with MDA-MB-231 [6] and in the test on HT-29 was 2 in each case.
`CCOC(=O)c1c2n(c3c(SC)ncnc13)CCC2`: the TGI in the test with B16 was determined as 40%.
The compound `O=C1/C(=C\c2ccncc2)C(c2ccccc2)n2cccc21` (configuration not stated) came in with an IC50 on Aromatase of 0.65 µM.
Consider `NC(=O)c1c2n(c3c(-c4ccccc4)ncnc13)CCC2`, for which the “growth inhibition (GI)” value (with Jensen sarcoma; in test [2]) was 73% throughout.
Turning to `CCOC(=O)Sc1ncnc2c(C(=O)OCC)c3n(c12)CCC3`, the TGI stood at 40% in the test with B16 and 34% in test [7].
`O=C(NCc1ccccc1)C1C(COP(=O)(O)O)C2CCCN2C1c1ccccc1` (racemic) displayed a Ki in test [1] of 44 µM.
In the case of `CCOC(=O)c1c2n(c3c(SCc4ccccc4)ncnc13)CCC2`, the TGI is recorded as 40% in the test on B16 and 43% in [8].
At Tubulin, `COc1ccc(-c2csc3c2-n2cccc2C3=O)cc1O` registered an IC50 of 2.9 µM.
`O=C(NCc1ccccc1)C1C(COP(=O)(O)O)C2CCCN2C1c1c(F)c(F)c(F)c(F)c1F` (racemic) displayed a Ki in test [1] of 16 µM.
On to `CSc1sc2c(c1-c1ccc([N+](=O)[O-])cc1)-n1cccc1/C2=N\OCOCCN1CCN(C)CC1`, for which the values for the IC50 in test [9] and in test [10] were 18.2 µM and 8.2 µM, respectively. Further, the “Ratio IC50” value was determined as 2.5 with Bel-7402 and 3.3 with HT-1080.
In test [1], `CO[C@@H]1C[C@@H]2[C@@H](COP(=O)(O)O)[C@@H](C(=O)NCc3ccccc3)[C@@H](c3ccc4ccccc4c3)N2C1` yielded a Ki of 9 µM.
`O=C(NCc1ccccc1)C1C(COP(=O)(O)O)C2CCCN2C1c1ccc2ccccc2c1` (racemic) came in with a Ki in test [1] of 15 µM.
